Experimental data published in patent publication US8030443B2, “Squamous cell carcinoma antigen-derived peptide binding to HLA-A24 molecule” (Kurume University, priority 2005, dated 2011).
Residues, ends and D or L forms follow the SMILES beside them.

Tested on: YES-2 (HLA-A24^+, SCCA^+) esophageal squamous cell carcinoma cells
Test: 6-h 51Cr-release cytotoxicity assay of peptide-stimulated CTLs
Assay type: cell-based, human
Text: Cultured cells in wells producing IFN-γ in response to a corresponding peptide were collected and further cultured with IL-2 alone for 10-14 days in order to obtain a sufficiently large number of cells to perform a standard 6-h ^51Cr-release assay. The following tumor cell lines were used as targets; YES-1 (HLA-A24^− and SCCA^+ esophageal squamous cell carcinoma), and YES-2 (HLA -A24^+ and SCCA^+ esophageal squamous cell carcinoma). Phytohemagglutinin (PHA)-stimulated blastoid T cells were also used as a negative control. In some experiments, 20 μg/ml of anti-HLA-class I (W6/32, IgG2a) (BioLegend, Camino Santa Fe, San Diego, Calif., USA), anti-HLA-class II (H-DR-1, IgG2a) (kindly provided by Dr. Yasuji NISHIMURA, KUMAMOTO UNIVERSITY, Japan), anti-CD4 (Nu-Th/i, IgG1) (established at Department of Immunology, Kurume University School of Medicine, Japan), or anti-CD8 (Nu-Ts/c, IgG2a) monoclonal antibody (mAb) (established at Department of Immunology, Kurume University School of Medicine, Japan) were added to the wells at the initiation of the assay. An anti-CD14 (JML-H14, IgG2a) mAb (established at Department of Immunology, Kurume University School of Medicine, Japan) was used as a negative control.

SMILES	Cytotoxicity of peptide-stimulated CTLs/PBMCs (SCC patients (Pts 2, 5, 7, 8), targets YES-2, YES-1, PHA-stimulated T-cell blasts (FIG. 4B))	Cytotoxicity of peptide-stimulated CTLs against YES-2 cells
CC[C@H](C)[C@H](NC(=O)CNC(=O)[C@H](CC(C)C)NC(=O)[C@H](CC(C)C)NC(=O)[C@H](CCC(N)=O)NC(=O)[C@H](CCC(N)=O)NC(=O)[C@H](CCCNC(=N)N)NC(=O)[C@H](CC(C)C)NC(=O)[C@H](Cc1ccc(O)cc1)NC(=O)[C@@H](N)CCCNC(=N)N)C(=O)O [HIV peptide, RYLRQQLLGI, reference compound] (H-RYLRQQLLGI-OH)	did not show any cytotoxicity	–
CC(C)C[C@H](NC(=O)[C@H](Cc1ccc(O)cc1)NC(=O)[C@H](CCC(=O)O)NC(=O)[C@H](CCC(N)=O)NC(=O)[C@H](CC(C)C)NC(=O)[C@H](Cc1ccccc1)NC(=O)[C@H](CC(C)C)NC(=O)[C@H](Cc1ccc(O)cc1)NC(=O)[C@@H](N)[C@@H](C)O)C(=O)O [SCCA 112, TYLFLQEYL] (H-TYLFLQEYL-OH)	–	exhibited cytotoxicity against YES-2 cells in an HLA class I-restricted manner
CC(C)C[C@H](NC(=O)[C@H](CO)NC(=O)[C@H](C)NC(=O)[C@H](Cc1ccccc1)NC(=O)[C@H](Cc1c[nH]cn1)NC(=O)[C@H](Cc1ccccc1)NC(=O)[C@H](CO)NC(=O)[C@@H](NC(=O)[C@H](Cc1ccc(O)cc1)NC(=O)[C@@H](N)CCC(N)=O)[C@@H](C)O)C(=O)O [SCCA 215, QYTSFHFASL] (H-QYTSFHFASL-OH)	–	exhibited cytotoxicity against YES-2 cells in an HLA class I-restricted manner
